Source: PubChem BioAssay AID256 (DTP/NCI, 2004)
Where “and” joins values, the source holds several entries; their conditions need not be identical. Equal entries are not always repeated. Inconclusive results and toxic doses are left out. The calls were made as follows: active = survival T/C of 150% or more; inactive = T/C below 125% in these data.

System: CD2F1 mice, L1210 leukemia ip, survival T/C
Assay: NCI In Vivo Anticancer Drug Screen. Data for tumor model L1210 Leukemia (intraperitoneal) in CD2F1 (CDF1) mice
Settings: endpoint: mean survival time, higher = longer survival
Summary of the method: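 Mice carrying a transplanted tumor received test compound or vehicle alone. The value is the measurement in the treated group divided by that in the vehicle-treated control group.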

[1] = dose: 100.0 mg/kg/injection, schedule: Q04DX003 (ip), vehicle: saline
[2] = dose: 200.0 mg/kg/injection, schedule: Q04DX003 (ip), vehicle: saline
[3] = dose: 50.0 mg/kg/injection, schedule: Q01DX009 (ip), vehicle: water
[4] = dose: 100.0 mg/kg/injection, schedule: Q01DX009 (ip), vehicle: water
[5] = dose: 200.0 mg/kg/injection, schedule: Q01DX009 (ip), vehicle: water
[6] = dose: 100.0 mg/kg/injection, schedule: Q01DX001 (ip), vehicle: saline
[7] = dose: 200.0 mg/kg/injection, schedule: Q01DX001 (ip), vehicle: saline
[8] = dose: 400.0 mg/kg/injection, schedule: Q01DX001 (ip), vehicle: saline
[9] = dose: 50.0 mg/kg/injection, schedule: Q01DX009 (ip), vehicle: Klucel (hydroxypropylcellulose) (HPC)
[10] = dose: 100.0 mg/kg/injection, schedule: Q01DX009 (ip), vehicle: Klucel (hydroxypropylcellulose) (HPC)
[11] = dose: 200.0 mg/kg/injection, schedule: Q01DX009 (ip), vehicle: Klucel (hydroxypropylcellulose) (HPC)
[12] = dose: 12.5 mg/kg/injection, schedule: Q01DX009 (ip), vehicle: other
[13] = dose: 25.0 mg/kg/injection, schedule: Q01DX009 (ip), vehicle: other
[14] = dose: 50.0 mg/kg/injection, schedule: Q01DX009 (ip), vehicle: other
[15] = dose: 100.0 mg/kg/injection, schedule: Q01DX009 (ip), vehicle: other
[16] = dose: 200.0 mg/kg/injection, schedule: Q01DX009 (ip), vehicle: other
[17] = dose: 6.25 mg/kg/injection, schedule: Q01DX009 (ip), vehicle: saline with Tween-80
[18] = dose: 12.5 mg/kg/injection, schedule: Q01DX009 (ip), vehicle: saline with Tween-80
[19] = dose: 25.0 mg/kg/injection, schedule: Q01DX009 (ip), vehicle: saline with Tween-80
[20] = dose: 100.0 mg/kg/injection, schedule: Q04DX002 (ip), vehicle: saline with Tween-80
[21] = dose: 200.0 mg/kg/injection, schedule: Q04DX002 (ip), vehicle: saline with Tween-80
[22] = dose: 25.0 mg/kg/injection, schedule: Q04DX002 (ip), vehicle: saline with Tween-80
[23] = dose: 50.0 mg/kg/injection, schedule: Q04DX002 (ip), vehicle: saline with Tween-80

Measured: T/C

CN(C)C(=O)c1ccc[n+](CC(=O)NCc2ccccc2)c1
inactive: [1] 98 % of control | [2] 98 % of control

O=C(c1ccc(-c2ccccc2)cc1)C(Br)C(Br)c1ccccc1 (centres undefined)
inactive: dose: 12.5 mg/kg/injection, schedule: Q01DX009 (ip), vehicle: water 95 % of control | [3] 90 % of control | [4] 90 % of control | [5] 102 % of control

CCOC(OCC)c1cc(=O)[nH]c(NC(C)=O)n1
inactive: [6] 95 % of control | [7] 103 % of control | [8] 95 % of control

C=C[Si]12OCCN(CCO1)CCO2
inactive: dose: 12.5 mg/kg/injection, schedule: Q01DX009 (ip), vehicle: Klucel (hydroxypropylcellulose) (HPC) 97 % of control and 105 % of control | dose: 25.0 mg/kg/injection, schedule: Q01DX009 (ip), vehicle: Klucel (hydroxypropylcellulose) (HPC) 95 % of control and 96 % of control | [9] 92 % of control and 100 % of control | [10] 92 % of control and 94 % of control | [11] 88 % of control and 94 % of control | dose: 400.0 mg/kg/injection, schedule: Q01DX009 (ip), vehicle: Klucel (hydroxypropylcellulose) (HPC) 88 % of control and 95 % of control

NC(=O)OCCc1ccccc1
inactive: dose: 100.0 mg/kg/injection, schedule: Q04DX003 (ip), vehicle: Klucel (hydroxypropylcellulose) (HPC) 94 % of control | dose: 200.0 mg/kg/injection, schedule: Q04DX003 (ip), vehicle: Klucel (hydroxypropylcellulose) (HPC) 102 % of control

O=C(COc1ccccc1)NCc1ccc(Cl)cc1
inactive: dose: 100.0 mg/kg/injection, schedule: Q04DX003 (ip), vehicle: saline with Tween-80 98 % of control | dose: 200.0 mg/kg/injection, schedule: Q04DX003 (ip), vehicle: saline with Tween-80 98 % of control | dose: 400.0 mg/kg/injection, schedule: Q04DX003 (ip), vehicle: saline with Tween-80 96 % of control

COc1cccc(C(O)c2ccncc2)c1OC (centres undefined)
inactive: dose: 25.0 mg/kg/injection, schedule: Q01DX009 (ip), vehicle: water 96 % of control | [3] 105 % of control | [4] 98 % of control | [5] 93 % of control | dose: 400.0 mg/kg/injection, schedule: Q01DX009 (ip), vehicle: water 91 % of control

O=C(NNC(=O)C(F)(F)F)c1ccccc1
inactive: [12] 92 % of control | [13] 94 % of control | [14] 94 % of control | [15] 118 % of control | [16] 109 % of control

O=C1CN2CCC1CC2
inactive: [1] 102 % of control | [2] 107 % of control

NC1CCC(CCCC2CCCC2)CC1 (centres undefined)
inactive: [17] 102 % of control | [18] 98 % of control | [19] 102 % of control

CC1COCC(C)N1N=Nc1ccccc1-c1nc(N)c2ccccc2n1 (centres undefined)
inactive: dose: 100.0 mg/kg/injection, schedule: Q04DX002 (ip), vehicle: Klucel (hydroxypropylcellulose) (HPC) 88 % of control | dose: 200.0 mg/kg/injection, schedule: Q04DX002 (ip), vehicle: Klucel (hydroxypropylcellulose) (HPC) 92 % of control | dose: 400.0 mg/kg/injection, schedule: Q04DX002 (ip), vehicle: Klucel (hydroxypropylcellulose) (HPC) 98 % of control

CC(O)CNc1nc(N)[nH]c(=O)c1[N+](=O)[O-] (centres undefined)
inactive: dose: 100.0 mg/kg/injection, schedule: Q01DX001 (ip), vehicle: saline with Tween-80 94 % of control | dose: 200.0 mg/kg/injection, schedule: Q01DX001 (ip), vehicle: saline with Tween-80 89 % of control

C=CCCCC[P+](c1ccccc1)(c1ccccc1)c1ccccc1
inactive: dose: 3.0 mg/kg/injection, schedule: Q01DX015 (ip), vehicle: saline 97 % of control | dose: 12.0 mg/kg/injection, schedule: Q01DX015 (ip), vehicle: saline 100 % of control | dose: 24.0 mg/kg/injection, schedule: Q01DX015 (ip), vehicle: saline 97 % of control

[NH-]CC[NH-].[NH-]CC[NH-].[NH-]CC[NH-].[Ni]
inactive: dose: 6.25 mg/kg/injection, schedule: Q01DX009 (ip), vehicle: saline 103 % of control | dose: 6.25 mg/kg/injection, schedule: Q04DX003 (ip), vehicle: saline 97 % of control | dose: 12.5 mg/kg/injection, schedule: Q01DX009 (ip), vehicle: saline 101 % of control | dose: 12.5 mg/kg/injection, schedule: Q04DX003 (ip), vehicle: saline 93 % of control | dose: 25.0 mg/kg/injection, schedule: Q01DX009 (ip), vehicle: saline 92 % of control | dose: 25.0 mg/kg/injection, schedule: Q04DX003 (ip), vehicle: saline 106 % of control

Cc1cccc(CCl)n1
inactive: dose: 100.0 mg/kg/injection, schedule: Q01DX009 (ip), vehicle: saline 98 % of control | [1] 101 % of control | dose: 200.0 mg/kg/injection, schedule: Q01DX009 (ip), vehicle: saline 90 % of control | [2] 95 % of control | dose: 400.0 mg/kg/injection, schedule: Q04DX003 (ip), vehicle: saline 87 % of control

c1ccc(-c2ccc(C3=NN(c4ccccc4)C(c4ccccc4)C3NC3CCCCC3)cc2)cc1 (centres undefined)
inactive: [12] 100 % of control | [13] 104 % of control | [14] 98 % of control | [15] 106 % of control | [16] 98 % of control

NC(=S)N/N=C1\c2cc(Cl)ccc2-c2c1cc(Cl)cc2[N+](=O)[O-]
inactive: dose: 50.0 mg/kg/injection, schedule: Q01DX001 (ip), vehicle: carboxymethylcellulose (CMC) 102 % of control | dose: 100.0 mg/kg/injection, schedule: Q01DX001 (ip), vehicle: carboxymethylcellulose (CMC) 102 % of control

O=C1c2ccccc2C(=O)c2c(O)c(N3CCC(C(=O)O)CC3)cc(O)c21
inactive: dose: 12.5 mg/kg/injection, schedule: Q01DX005 (ip), vehicle: other 106 % of control | dose: 25.0 mg/kg/injection, schedule: Q01DX005 (ip), vehicle: other 104 % of control | dose: 50.0 mg/kg/injection, schedule: Q01DX005 (ip), vehicle: other 106 % of control | dose: 100.0 mg/kg/injection, schedule: Q01DX005 (ip), vehicle: other 96 % of control | dose: 200.0 mg/kg/injection, schedule: Q01DX005 (ip), vehicle: other 98 % of control

O=S1(=O)CC(Cl)(Br)C1 (tested in a mixture with another compound)
inactive: [9] 92 % of control | [10] 107 % of control | [11] 103 % of control

c1ccc2c3c([nH]c2c1)CN1CCNCC1C3 (centres undefined)
inactive: [17] 98 % of control | [18] 100 % of control | [19] 100 % of control

COc1c(NC(=O)Nc2cccc(Cl)c2)cccc1[N+](=O)[O-]
inactive: [20] 92 % of control | [21] 88 % of control

CCOC(=O)C(O)C(C)(Cl)c1ccccc1 (centres undefined)
inactive: [22] 98 % of control | [23] 102 % of control | [20] 95 % of control | [21] 95 % of control

C=CCN1C(=O)C=CC1=O
inactive: [22] 95 % of control | [23] 91 % of control | [20] 88 % of control

CC(=O)OCCC/C(=C/c1c[nH]c2ccccc12)[N+](=O)[O-]
inactive: [6] 97 % of control | [7] 102 % of control | [8] 109 % of control
